According to publication PMC9250534, “Synthesis and direct assay of large macrocycle diversities by combinatorial late-stage modification at picomole scale” (Nature Communications, 2022):

Target: MDM2 (Homo sapiens, UniProt Q00987)
Experiment: MDM2 binding screen of Libraries 3 and 4: displacement of fluorescent probe F-M8 at 750 nM macrocycle
Outline: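 Competition with nutlin-3a was run using the fluorescein conjugate. Library members came from scaffolds reacted 6 h at room temperature with carboxylic acids (20 equiv.), HBTU and DABCO in DMSO. Quenching was overnight in Tris-Cl pH 7.4 buffer with 0.01% Tween20.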

[1] = Panel b, Library 3: 63 scaffolds combinatorially acylated with 15 carboxylic acids at 30 picomole scale, displacement of fluorescent peptide probe, macrocycle 750 nM

Sequence of MDM2 (Q00987 whole entry): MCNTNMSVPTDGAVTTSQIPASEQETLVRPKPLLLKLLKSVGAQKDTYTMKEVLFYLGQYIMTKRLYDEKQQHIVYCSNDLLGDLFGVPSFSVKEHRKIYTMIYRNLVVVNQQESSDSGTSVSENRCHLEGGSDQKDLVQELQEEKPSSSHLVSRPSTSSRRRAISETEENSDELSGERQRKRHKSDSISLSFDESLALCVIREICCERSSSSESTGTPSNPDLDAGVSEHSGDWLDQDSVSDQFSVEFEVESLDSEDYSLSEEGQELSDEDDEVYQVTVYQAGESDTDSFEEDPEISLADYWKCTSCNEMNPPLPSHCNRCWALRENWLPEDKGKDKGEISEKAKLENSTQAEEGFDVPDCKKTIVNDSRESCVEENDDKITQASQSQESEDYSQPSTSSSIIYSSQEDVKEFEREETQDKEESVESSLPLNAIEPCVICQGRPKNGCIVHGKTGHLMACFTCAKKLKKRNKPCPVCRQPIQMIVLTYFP

`O=C(O)/C=C/c1cccc(Cl)c1` [Acid 121] was tested. Which “fraction of fluorescent probe displaced” value (Panel c, Library 4: best nine scaffolds and 15 additional carboxylic acids, displacement of fluorescent probe) did it give?
The value was -0.00464.

Which “fraction of fluorescent probe displaced” value [1] does the source give for `Cn1cc(C[C@@H]2NC(=O)[C@@H](CNC(=O)c3ccc(Cl)cc3)NC(=O)C3(CC3)CNC(=O)CCSSCCNC2=O)c2ccccc21` [X-Amcp-D-Dap-Me-Trp + Acid 25] here?
The value was -0.00533.

With `O=C(O)CCS(=O)(=O)c1ccccc1` [Acid 114] as the compound, how does the “fraction of fluorescent probe displaced” value [1] read?
Its value is 0.035.

With `CN1C(=O)[C@H](CNC(=O)/C=C/c2ccc(OCc3ccccc3)cc2)NC(=O)C2(CC2)CNC(=O)CCSSCCNC(=O)[C@@H]1Cc1c[nH]c2ccccc12` [X-Amcp-Dap-NMe-Trp + Acid 110] as the compound, how does the “fraction of fluorescent probe displaced” value [1] read?
The value was 0.015.

How did the “fraction of fluorescent probe displaced” value [1] turn out when `O=C(NC[C@H]1NC(=O)[C@@H]2CN(CCO2)C(=O)CCSSCCNC(=O)[C@H](Cc2c[nH]c3ccccc23)NC1=O)c1ccc(Cl)cc1` [X-Cop-D-Dap-Trp + Acid 25] was run?
Its value is 0.00133.

`O=C(CCS(=O)(=O)c1ccccc1)NC[C@@H]1NC(=O)[C@@H]2CN(CCO2)C(=O)CCSSCCNC(=O)[C@H](Cc2c[nH]c3cc(Cl)ccc23)NC1=O` [X-Cop-Dap-Cl-Trp + Acid 114] was tested. Which “fraction of fluorescent probe displaced” value [1] did it give?
Its value is -0.039.

With `O=C1CCSSCCNC(=O)[C@@H](Cc2c[nH]c3ccccc23)NC(=O)[C@H](CNC(=O)c2cccc(Oc3ccccc3)c2)NC(=O)C2(CC2)CN1` [X-Amcp-Dap-D-Trp + Acid 111] as the compound, how does the “fraction of fluorescent probe displaced” value [1] read?
Its value is 0.00133.
